Laboratory results: patent US10981911B2, “Imidazopyrrolopyridine as inhibitors of the JAK family of kinases” (Janssen Pharmaceutica NV, priority 2016, dated 2021)

Legend:
Format in all cases: biochemical
Tyk2-JH1JH2 = Tyk2-JH1JH2 (Homo sapiens (Human), UniProt P29597, C1142A/C936A); assay: Enzymatic inhibition assay (RapidFire HTMS), Tyk2; details: 50 μM ATP, 200 μM substrate
From the text: (§1) LC/MS grade Water and Acetonitrile (ACN), were purchased from HoneyWell, Burdick & Jackson (Muskegon, Mich., USA). Dimethylsulfoxide 99.8% (DMSO) and Trifluoroacetic Acid 99.5% (TFA) were purchased from EMD Chemical (Gibbstown, N.J., USA). Adenosine triphosphate (ATP), 4-Morpholinepropanesulfonic acid (MOPS), Magnesium chloride (MgCl2), ethylenediaminetetraacetic acid (EDTA), dithiothreitol (DTT), formic acid >95% (FA) and Tween-20 were purchased from Sigma (St Louis, Mo., USA). 384-well polypropylene plates, Cat #781280 were purchased from Greiner (Monroe, N.C.), RapidFire™ cartridge A C4 Column (Agilent Technologies, Santa Clara, Calif.).
(§2) The HTMS experiments were performed in positive ionization mode on a RapidFire 300 instrument (Agilent Technologies, Santa Clara, Calif.), coupled with an ABSiex QTrap 4000 system with an Electrospray Ionization source (RF-MS) (Concord, ON, Canada). […] The entire system was operated using the RapidFire software interfaced with Analyst software for the mass spectrometer.
(§3) 11-point dosing series were made for each compound by serially diluting 1:3 or 1:4 in DMSO, with point 12 being a DMSO control. From the serial dilution plates, sample was transferred to a 384 wells assay plate (#781280, Greiner, Monroe, N.C.) using Labcyte Echo (Sunnyvale, Calif.), or Biosero ATS (San Diego, Calif.). The compounds were tested in duplicate. Column 12 was used for positive controls, and column 24 contained negative controls with no enzyme added. A compound from our internal collection, with inhibitory activity for JAK isoforms, was used as a reference compound. The final concentration of DMSO was ≤0.25% in a 20 μL reaction. […] The Tyk2 enzyme was pre-incubated with 2 mM ATP for 30 min prior to the reaction initiation. Immediately after the addition of the enzyme to the reaction mixture, the plate was centrifuged at 1000 rpm for 1 minute and incubated at 25° C. for 45 minutes for JAK 3 and 90 minutes for JAK1, JAK2 and Tyk2. The reaction was quenched by the addition of 20 μL of 0.5% TFA containing 0.15 μM of internal standard peptide using Multidrop Combi reagent dispenser (Thermo Scientific, Waltham, Mass.). […] After the quench, the assay plate was centrifuged at 3000 rpm for 3 minutes and sealed with pierceable aluminum foil (Cat #06644-001, Agilent) using a PlateLoc (Agilent Technologies, Santa Clara, Calif.). The plates then were transferred on to the RapidFire for the MS analysis. Compound inhibition was assessed by a decrease of the phosphorylated product levels in sample wells compared to the non-inhibited enzyme reaction.
(§4) The sample analysis on the RapidFire was performed using a mobile phase A consisting of Water/TFA/FA (100:0.01:0.1, v/v/v), a mobile phase B consisting of ACN/Water/TFA/FA (80:20:0.01:0.1, v/v/v). […] The samples were aspirated directly from the 384 assay plate and delivered onto RF-MS microscale solid-phase C4 extraction cartridge (Type A). The undesired component such as salt, cofactor, detergent and large protein were washed out and the retained analytes (substrate, product and IS) were coeluted directly onto the ABSiex Qtrap 4000 system.

JAK1-JH1JH2 = JAK1-JH1JH2 (Homo sapiens (Human), UniProt P23458); assay: Enzymatic inhibition assay (RapidFire HTMS), JAK1; details: 12.5 μM ATP, 200 μM substrate; read-out: JAK1-JH2JH1 IC50
JAK1-JH1JH2, sequence (P23458 574-1154): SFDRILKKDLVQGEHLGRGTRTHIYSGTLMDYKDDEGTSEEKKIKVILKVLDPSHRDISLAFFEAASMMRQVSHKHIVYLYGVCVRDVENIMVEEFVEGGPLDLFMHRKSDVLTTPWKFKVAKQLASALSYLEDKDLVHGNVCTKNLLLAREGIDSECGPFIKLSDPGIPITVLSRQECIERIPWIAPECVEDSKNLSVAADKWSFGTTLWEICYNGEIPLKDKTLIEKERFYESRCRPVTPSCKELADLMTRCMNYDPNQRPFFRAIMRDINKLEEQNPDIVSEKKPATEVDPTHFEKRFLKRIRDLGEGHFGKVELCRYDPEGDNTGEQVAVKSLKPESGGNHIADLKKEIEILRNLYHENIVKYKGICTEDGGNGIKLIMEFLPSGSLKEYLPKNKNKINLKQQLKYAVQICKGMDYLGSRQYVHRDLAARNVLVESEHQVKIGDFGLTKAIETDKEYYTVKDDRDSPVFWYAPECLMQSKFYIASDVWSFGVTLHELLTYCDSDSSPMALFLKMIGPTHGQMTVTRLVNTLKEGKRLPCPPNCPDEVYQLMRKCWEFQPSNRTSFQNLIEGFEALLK
From the text: as §1, §2, §3, §4

JAK2-JH1JH2 = JAK2-JH1JH2 (Homo sapiens (Human), UniProt O60674); assay: Enzymatic inhibition assay (RapidFire HTMS), JAK2; details: 30 μM ATP, 40 μM substrate
JAK2-JH1JH2, sequence (O60674 532-1132): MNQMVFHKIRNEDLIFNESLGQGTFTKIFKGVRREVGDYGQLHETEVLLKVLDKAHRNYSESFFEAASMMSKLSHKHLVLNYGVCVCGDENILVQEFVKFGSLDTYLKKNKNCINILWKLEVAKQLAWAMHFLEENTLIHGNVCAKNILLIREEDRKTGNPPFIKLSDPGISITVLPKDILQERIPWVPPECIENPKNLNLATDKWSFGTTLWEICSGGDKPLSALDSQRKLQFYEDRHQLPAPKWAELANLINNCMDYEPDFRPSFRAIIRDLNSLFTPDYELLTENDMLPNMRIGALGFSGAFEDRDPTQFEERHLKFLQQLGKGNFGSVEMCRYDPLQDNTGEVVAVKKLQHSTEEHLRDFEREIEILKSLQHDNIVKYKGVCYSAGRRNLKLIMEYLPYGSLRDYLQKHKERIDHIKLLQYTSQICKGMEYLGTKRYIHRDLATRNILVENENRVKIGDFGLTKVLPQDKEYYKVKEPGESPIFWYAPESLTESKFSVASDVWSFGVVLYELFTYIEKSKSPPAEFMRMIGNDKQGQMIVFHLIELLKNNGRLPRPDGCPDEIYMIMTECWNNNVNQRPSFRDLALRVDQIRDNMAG
From the text: as §1, §2, §3, §4

JAK3-JH1JH2 = JAK3-JH1JH2 (Homo sapiens (Human), UniProt P52333); assay: Enzymatic inhibition assay (RapidFire HTMS), JAK3; details: 150 μM ATP, 40 μM substrate
JAK3-JH1JH2, sequence (P52333 512-1124): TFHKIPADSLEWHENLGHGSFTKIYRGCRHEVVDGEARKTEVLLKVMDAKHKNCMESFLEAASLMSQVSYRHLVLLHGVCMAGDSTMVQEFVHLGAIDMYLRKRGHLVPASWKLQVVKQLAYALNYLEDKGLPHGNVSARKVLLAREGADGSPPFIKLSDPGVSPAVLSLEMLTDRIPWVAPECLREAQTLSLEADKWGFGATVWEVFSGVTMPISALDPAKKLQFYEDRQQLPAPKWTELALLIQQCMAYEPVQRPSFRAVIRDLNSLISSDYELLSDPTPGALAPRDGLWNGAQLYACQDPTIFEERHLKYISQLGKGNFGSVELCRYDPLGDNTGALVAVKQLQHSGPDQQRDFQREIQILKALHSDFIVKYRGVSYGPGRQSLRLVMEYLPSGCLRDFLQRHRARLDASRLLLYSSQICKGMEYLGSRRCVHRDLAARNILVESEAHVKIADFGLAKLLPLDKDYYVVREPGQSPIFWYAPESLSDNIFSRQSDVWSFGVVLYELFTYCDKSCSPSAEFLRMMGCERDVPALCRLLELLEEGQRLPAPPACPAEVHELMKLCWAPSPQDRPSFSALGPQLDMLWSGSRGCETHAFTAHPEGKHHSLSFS
From the text: as §1, §2
as §3, with “compound.” for “compound. The final concentration of DMSO was ≤0.25% in a 20 μL reaction.”
as §4

Tyk2-JH1JH2, sequence (P29597 580-1182 C936A/C1142A): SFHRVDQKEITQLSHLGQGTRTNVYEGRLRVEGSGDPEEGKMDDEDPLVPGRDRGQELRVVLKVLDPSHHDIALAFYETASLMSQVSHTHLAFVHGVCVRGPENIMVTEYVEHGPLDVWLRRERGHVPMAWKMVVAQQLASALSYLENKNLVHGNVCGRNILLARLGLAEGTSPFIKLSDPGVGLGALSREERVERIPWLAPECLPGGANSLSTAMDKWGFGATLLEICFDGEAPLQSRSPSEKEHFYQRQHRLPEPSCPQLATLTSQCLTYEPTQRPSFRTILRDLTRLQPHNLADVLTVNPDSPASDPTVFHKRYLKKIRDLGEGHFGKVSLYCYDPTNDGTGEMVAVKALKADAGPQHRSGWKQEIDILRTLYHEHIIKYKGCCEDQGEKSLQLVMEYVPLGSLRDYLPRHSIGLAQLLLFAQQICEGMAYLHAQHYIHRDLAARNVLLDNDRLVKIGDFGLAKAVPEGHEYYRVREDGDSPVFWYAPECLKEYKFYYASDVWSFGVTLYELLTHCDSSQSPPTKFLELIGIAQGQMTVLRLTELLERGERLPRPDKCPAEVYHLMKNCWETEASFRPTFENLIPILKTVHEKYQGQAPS

Row | SMILES | IC50 (Tyk2-JH1JH2) [nM] | IC50 (JAK1-JH1JH2) [nM] | IC50 (JAK2-JH1JH2) [nM] | IC50 (JAK3-JH1JH2) [nM]
1 | N#CC[C@H]1CC[C@H](n2c(CC(=O)NC34CCC(C#N)(CC3)C4)nc3cnc4[nH]ccc4c32)CC1 [Ex. 23, N-(4-Cyanobicyclo[2.2.1]heptan-1-yl)-2-(1-((1r,4r)-4-(cyanomethyl)cyclohexyl)-1,6-dihydroimidazo[4,5-d]pyrrolo[2,3-b]pyridin-2-yl)acetamide] | 3.5 | 0.1 | 1.4 | 38.1
2 | N#CC[C@H]1CC[C@H](n2c(CC(=O)NCC3(O)COC3)nc3cnc4[nH]ccc4c32)CC1 [Ex. 24, 2-(1-((1r,4r)-4-(Cyanomethyl)cyclohexyl)-1,6-dihydroimidazo[4,5-d]pyrrolo[2,3-b]pyridin-2-yl)-N-((3-hydroxyoxetan-3-yl)methyl)acetamide] | 3.3 | 0.1 | 4.9 | 57.5
3 | N#CC[C@H]1CC[C@H](n2c(CC(=O)N3CCC(N4CCOCC4)CC3)nc3cnc4[nH]ccc4c32)CC1 [Ex. 26, 2-((1r,4r)-4-(2-(2-(4-Morpholinopiperidin-1-yl)-2-oxoethyl)imidazo[4,5-d]pyrrolo[2,3-b]pyridin-1(6H)-yl)cyclohexyl)acetonitrile] | 2.7 | 0.1 | 6.1 | 106
4 | N#CC[C@H]1CC[C@H](n2c(CC(=O)N[C@H]3CC[C@H](CO)CC3)nc3cnc4[nH]ccc4c32)CC1 [Ex. 27, 2-(1-((1r,4r)-4-(Cyanomethyl)cyclohexyl)-1,6-dihydroimidazo[4,5-d]pyrrolo[2,3-b]pyridin-2-yl)-N-((1r,4r)-4-(hydroxymethyl)cyclohexyl)acetamide] | 7.2 | 0.1 | 2.9 | 36.9
5 | N#CC[C@H]1CC[C@H](n2c(CC(=O)NC3CCCCC3)nc3cnc4[nH]ccc4c32)CC1 [Ex. 28, 2-(1-((1r,4r)-4-(Cyanomethyl)cyclohexyl)-1,6-dihydroimidazo[4,5-d]pyrrolo[2,3-b]pyridin-2-yl)-N-cyclohexylacetamide] | 3.5 | 0.1 | 2.4 | 32.7
6 | N#CC[C@H]1CC[C@H](n2c(-c3n[nH]cc3Cl)nc3cnc4[nH]ccc4c32)CC1 [Ex. 31, 2-((1r,4r)-4-(2-(4-Chloro-1H-pyrazol-3-yl)imidazo[4,5-d]pyrrolo[2,3-b]pyridin-1(6H)-yl)cyclohexyl)acetonitrile] | 3.7 | 0.2 | 5.5 | 121
7 | N#CC[C@H]1CC[C@H](n2c(CC(=O)NC34CC5CC(CC(C5)C3)C4)nc3cnc4[nH]ccc4c32)CC1 [Ex. 32, N-((3R,5R)-Adamantan-1-yl)-2-(1-((1r,4r)-4-(cyanomethyl)cyclohexyl)-1,6-dihydroimidazo[4,5-d]pyrrolo[2,3-b]pyridin-2-yl)acetamide] | 2.8 | 0.2 | 1.3 | 59.3
8 | N#CC[C@H]1CC[C@H](n2c(CC(=O)N[C@H]3CC[C@H](O)CC3)nc3cnc4[nH]ccc4c32)CC1 [Ex. 33, 2-(1-((1r,4r)-4-(Cyanomethyl)cyclohexyl)-1,6-dihydroimidazo[4,5-d]pyrrolo[2,3-b]pyridin-2-yl)-N-((1r,4r)-4-hydroxycyclohexyl)acetamide] | 3.8 | 0.2 | 2.3 | 38
9 | N#CC[C@H]1CC[C@H](n2c(CC(=O)N[C@H]3C[C@H](O)C3)nc3cnc4[nH]ccc4c32)CC1 [Ex. 37, 2-(1-((1r,4r)-4-(Cyanomethyl)cyclohexyl)-1,6-dihydroimidazo[4,5-d]pyrrolo[2,3-b]pyridin-2-yl)-N-((1R,3R)-3-hydroxycyclobutyl)acetamide] | 4.3 | 0.2 | 4.6 | 38.8

Now from value to molecule:

Row | IC50 (Tyk2-JH1JH2) [nM] | IC50 (JAK1-JH1JH2) [nM] | IC50 (JAK2-JH1JH2) [nM] | IC50 (JAK3-JH1JH2) [nM] | SMILES
10 | 3.8 | 0.1 | 7.3 | 67.2 | N#CC[C@H]1CC[C@H](n2c(CC(=O)NCCO)nc3cnc4[nH]ccc4c32)CC1 [Ex. 29, 2-(1-((1r,4r)-4-(Cyanomethyl)cyclohexyl)-1,6-dihydroimidazo[4,5-d]pyrrolo[2,3-b]pyridin-2-yl)-N-(2-hydroxyethyl)acetamide]
11 | 1.6 | 0.2 | 6.6 | 996 | N#CC[C@H]1CC[C@H](n2c(CNC(=N)c3ccccc3)nc3cnc4[nH]ccc4c32)CC1 [Ex. 30, N-((1-((1r,4r)-4-(Cyanomethyl)cyclohexyl)-1,6-dihydroimidazo[4,5-d]pyrrolo[2,3-b]pyridin-2-yl)methyl)benzimidamide]
12 | 4.5 | 0.2 | 3.6 | 107 | N#CC[C@H]1CC[C@H](n2c(CC(=O)NCc3cnccn3)nc3cnc4[nH]ccc4c32)CC1 [Ex. 35, 2-(1-((1r,4r)-4-(Cyanomethyl)cyclohexyl)-1,6-dihydroimidazo[4,5-d]pyrrolo[2,3-b]pyridin-2-yl)-N-(pyrazin-2-ylmethyl)acetamide]
13 | 2.2 | 0.2 | 0.8 | 12 | N#CC[C@H]1CC[C@H](n2c(CC(=O)NCc3ncc[nH]3)nc3cnc4[nH]ccc4c32)CC1 [Ex. 36, N-((1H-imidazol-2-yl)methyl)-2-(1-((1r,4r)-4-(cyanomethyl)cyclohexyl)-1,6-dihydroimidazo[4,5-d]pyrrolo[2,3-b]pyridin-2-yl)acetamide]
14 | 10 | 0.2 | 5.3 | 142 | N#CC[C@H]1CC[C@H](n2c(CC(=O)NCc3ccc(C#N)cc3)nc3cnc4[nH]ccc4c32)CC1 [Ex. 39, N-(4-Cyanobenzyl)-2-(1-((1r,4r)-4-(cyanomethyl)cyclohexyl)-1,6-dihydroimidazo[4,5-d]pyrrolo[2,3-b]pyridin-2-yl)acetamide]
15 | 0.3 | < 0.2 | 1 | 47 | N#CC[C@H]1CC[C@H](n2c(CNC(N)=O)nc3cnc4[nH]ccc4c32)CC1 [Ex. 40, 1-((1-((1r,4r)-4-(Cyanomethyl)cyclohexyl)-1,6-dihydroimidazo[4,5-d]pyrrolo[2,3-b]pyridin-2-yl)methyl)urea]
16 | 0.6 | < 0.2 | 0.4 | 19.9 | N#CC[C@H]1CC[C@H](n2c(Cc3cscn3)nc3cnc4[nH]ccc4c32)CC1 [Ex. 41, 2-((1r,4r)-4-(2-(Thiazol-4-ylmethyl)imidazo[4,5-d]pyrrolo[2,3-b]pyridin-1(6H)-yl)cyclohexyl)acetonitrile]
